The source of these data is patent US11707065B2, “Method for biofilm dispersal” (MC (US) 3 LLC, priority 2017, dated 2023).

In test [1] the test system is Desulfovibrio desulfuricans (DSM 12129) biofilm. Briefly: Biofilm dispersal assay, crystal violet staining of remaining biofilm in 96-well plates. Conditions: D. desulfuricans, 2 h treatment, 24 h biofilm, negative control 0.88. It is filed as cell-based. As for the experimental part: (§1) Cultures of Desulfovibrio vulgaris (ATCC 29579) and Desulfovibrio desulfuricans (DSM 12129) were prepared in Modified Baar's medium at 30 C under anaerobic conditions. The bacterial cultures were then used to prepare bacterial suspensions in fresh Modified Baar's medium to a cell density of 0.1 (Table 2 to 6) or 0.05 (Table 1) at 600 nm. The appropriate bacterial suspension was used to fill 96-well plates and the plates were incubated in an anaerobic glove box for 24 h (Table 2 to 6) or 48 h (Table 1) at 30° C. to develop biofilms. Stocks of D-mannose (2.85 M, Alfa Aesar, Cat #A10842), 2DG (1.22 M, Alfa Aesar, Cat #AAAL07338-06), αMM (1.22 M, Acros Organics, Cat #AC229251000), and αMG (1.22 M, Alfa Aesar, Cat #AAA12484-22) were prepared in sterile distilled water and filtered through a 0.22 μm filter. For biofilm dispersal assay, the planktonic cells were removed, and the plates were washed with 150 μL of 1× of phosphate buffered saline (pH 7.4); D-mannose, 2DG, αMM, and αMG were added, the volume was adjusted with 1×PBS, pH 7.4 to 150 μL, and the plates were incubated in the anaerobic glove box for 2 h (Table 1, 2, 4, 5, 6) or 14 h (Table 3) for biofilm dispersal studies. After the treatment, supernatants were discarded; the wells were washed three times with deionized water (DW) by dipping the plates into a 1 L solution of DW, and the plates were dried via a piece of paper towel by patting. 300 μL of 0.1% crystal violet was added to each well, the plates were incubated for 20 minutes at room temperature (25° C.), and the staining solution was discarded. The plates were washed three times with DW by dipping the plates into a 1 L solution of DW, then 300 μL of 95% ethanol was added to each well, and the plates were soaked for 5 min to dissolve the crystal violet. Total biofilm was measured spectrophotometrically at 540 nm using a Sunrise microplate reader (Tecan, Austria Gesellschaft, Salzburg, Austria).

Test [2] concerns Desulfovibrio vulgaris (ATCC 29579) biofilm. The test is described as above. It is filed as cell-based. The following applies: D. vulgaris. As for the experimental part:
as §1

[3] abbreviates: 30 mM, 2 h treatment, 24 h biofilm (cell density 0.1), negative control per table.
[4] abbreviates: 100 mM, 2 h treatment, 24 h biofilm (cell density 0.1), negative control per table.
Where [5] appears, read: 500 mM, 2 h treatment, 24 h biofilm (cell density 0.1), negative control per table.

The structures appear in SMILES notation.

On to `O=CC[C@@H](O)[C@H](O)[C@H](O)CO` [2DG, 2-deoxy-D-glucose], for which the “Remaining biofilm OD540 (average)” value was 0.59 in test [1] (30 mM), 0.49 in test [1] (100 mM) and 0.41 in test [1] (500 mM). Further, the “Remaining biofilm OD540” value in test [2] (1 mM, 14 h treatment, 24 h biofilm, negative control 0.26) was found to be 0.24; in test [2] (5 mM, 14 h treatment, 24 h biofilm, negative control 0.26), 0.21; in test [2] (10 mM, 14 h treatment, 24 h biofilm, negative control 0.26), 0.16; in test [2] (setting [3]), 0.24; in test [2] (setting [4]) it was 0.17; in test [2] (setting [5]), 0.18.
On to `CO[C@H]1O[C@H](CO)[C@@H](O)[C@H](O)[C@H]1O` [αMG, methyl α-D-glucopyranoside], for which the “Remaining biofilm OD540 (average)” value in test [1] (30 mM) worked out at 0.75; in test [1] (100 mM) it was 0.62; in test [1] (500 mM), 0.55. Moreover, the entries for the “Remaining biofilm OD540” value in test [2] (setting [3]), in test [2] (setting [4]) and in test [2] (setting [5]) were 0.39, 0.33 and 0.45, respectively.
With `CO[C@H]1O[C@H](CO)[C@@H](O)[C@H](O)[C@@H]1O` [αMM, methyl α-D-mannopyranoside], the “Remaining biofilm OD540 (average)” value in test [1] (30 mM) came to 0.60; in test [1] (100 mM), 0.53; in test [1] (500 mM), 0.50. Further, the “Remaining biofilm OD540” value in test [2] (setting [3]) turned out to be 0.42; in test [2] (setting [4]), 0.40; in test [2] (setting [5]) it was 0.23.
